# From ChEMBL document CHEMBL1201862, “PubChem BioAssay data set” (2004)
#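 Five compound concentrations were applied to cells in 96-well plates for 48 hours; endpoints were derived by simple linear interpolation of the resulting dose-response curve. GI50: concentration for 50% inhibition of growth.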 The source made the active and inactive calls. No stated cut-off is given here; in the data, active = GI50 up to about 1.1 µM and inactive = higher.
# Columns and labels:
# Assay in all cases: growth of human tumour cells (NCI), 48 h
# OVCAR-4 = tested on: OVCAR-4
# SR = tested on: SR
# Hs-578T = tested on: Hs-578T
# SK-MEL-5 = tested on: SK-MEL-5
# TK-10 = tested on: TK-10
# MDA-MB-435 = tested on: MDA-MB-435
# RXF 393 = tested on: RXF 393
# SW-620 = tested on: SW-620
# Malme-3M = tested on: Malme-3M
# MOLT-4 = tested on: MOLT-4
# T47D = tested on: T47D
# HCT-116 = tested on: HCT-116
# PC-3 = tested on: PC-3
# IGROV-1 = tested on: IGROV-1
# UACC-257 = tested on: UACC-257
# KM12 = tested on: KM12
# SK-MEL-28 = tested on: SK-MEL-28
# HT-29 = tested on: HT-29
# COLO 205 = tested on: COLO 205
# HOP-92 = tested on: HOP-92
Compound,GI50 (OVCAR-4),GI50 (SR),GI50 (Hs-578T),GI50 (SK-MEL-5),GI50 (TK-10),GI50 (MDA-MB-435),GI50 (RXF 393),GI50 (SW-620),GI50 (Malme-3M),GI50 (MOLT-4),GI50 (T47D),GI50 (HCT-116),GI50 (PC-3),GI50 (IGROV-1),GI50 (UACC-257),GI50 (KM12),GI50 (SK-MEL-28),GI50 (HT-29),GI50 (COLO 205),GI50 (HOP-92)
CCOC(=O)/C=C(\C(=O)OCC)n1ccc(=O)[nH]c1=O,19.1 µM (inactive),10.4 µM (inactive),29.4 µM (inactive),24.7 µM (inactive),13.3 µM (inactive),17.4 µM (inactive),10.6 µM (inactive),2.64 µM (inactive),10.2 µM (inactive),3.44 µM (inactive),6.59 µM (inactive),6.31 µM (inactive),16.9 µM (inactive),15.4 µM (inactive),4.72 µM (inactive),17.9 µM (inactive),16.9 µM (inactive),15.2 µM (inactive),2.67 µM (inactive),2.55 µM (inactive)
COc1ccc(/C=C2\N=C(N3CCCC(CO)C3)NC2=O)cc1 (stereo not given),> 100 µM (inactive),> 100 µM (inactive),> 100 µM (inactive),> 100 µM (inactive),> 100 µM (inactive),> 100 µM (inactive),> 100 µM (inactive),> 100 µM (inactive),> 100 µM (inactive),> 100 µM (inactive),> 100 µM (inactive),> 100 µM (inactive),> 100 µM (inactive),> 100 µM (inactive),> 100 µM (inactive),> 100 µM (inactive),> 100 µM (inactive),> 100 µM (inactive),> 100 µM (inactive),> 100 µM (inactive)
CC[C@H]1CN2CCc3cc(OC)c(OC)cc3[C@@H]2C[C@@H]1C[C@H]1NCCc2c1[nH]c1ccc(O)cc21 [TUBULOSINE],< 0.01 µM (active),< 0.215 µM (active),0.0169 µM (active),0.0135 µM (active),0.0388 µM (active),< 0.0125 µM (active),0.016 µM (active),< 0.0119 µM (active),0.0421 µM (active),< 0.01 µM (active),< 0.0106 µM (active),0.0102 µM (active),< 0.0156 µM (active),0.0157 µM (active),0.0582 µM (active),0.0246 µM (active),0.0211 µM (active),< 0.01 µM (active),< 0.01 µM (active),0.0105 µM (active)
O=c1oc2ccc(Cl)cc2cc1C1=CSC2=NCCN12,23.6 µM (inactive),17.1 µM (inactive),31.7 µM (inactive),19.1 µM (inactive),27.1 µM (inactive),21.5 µM (inactive),21.3 µM (inactive),24.6 µM (inactive),31.1 µM (inactive),17.9 µM (inactive),25.3 µM (inactive),17.6 µM (inactive),21.7 µM (inactive),18.5 µM (inactive),37.7 µM (inactive),19.8 µM (inactive),27.9 µM (inactive),18.8 µM (inactive),20.9 µM (inactive),22.1 µM (inactive)
CCCCCCCCCCCCCCCCCc1cccc(OCOCCOC)c1C(=O)O,19.5 µM (inactive),25.4 µM (inactive),18.6 µM (inactive),20 µM (inactive),18.9 µM (inactive),19.2 µM (inactive),17.9 µM (inactive),20.3 µM (inactive),10.2 µM (inactive),21.5 µM (inactive),16.5 µM (inactive),19.4 µM (inactive),17.1 µM (inactive),16.9 µM (inactive),20.5 µM (inactive),17.1 µM (inactive),20.1 µM (inactive),17.1 µM (inactive),20.6 µM (inactive),18.9 µM (inactive)
